{"source": "patent US20020151707A1", "about": "“Immune mediators and related methods” (Corixa Corp., priority 1995, published 2002)", "key": {"NOD MHC Class II I-A^g7": {"system": "NOD MHC Class II I-A^g7", "details": "known from the literature (Reich et al.); cited from earlier work"}, "[1]": {"system": "T cell lines derived from one HLA-DRB1*0404 patient (ThHo)", "assay": "Reactivity of GAD-reactive human T cell lines to synthetic GAD peptides (3H-thymidine proliferation)", "assay_type": "cell-based", "details": "for number of T cell lines stimulated: of 4 T cell lines", "procedure": "T-cell clones were rested (not given IL-2 for 2 days, at least 7 days post-stimulation with antigen), washed, counted and resuspended in 15% PHS medium. They were plated at 25,000 cells/well in […] 15% PHS medium. Autologous or HLA-class II-matched PBMNCs are loaded with GAD by incubating with GAD (about […]) for at least 5 hours. The cells are washed and irradiated with 3000 rads. These cells are washed and resuspended in 15% PHS medium, and added to the T-cells at a concentration of 1×10^6 cells/well in […] 15% PHS medium. The cells were incubated for 48 hours, then pulsed with […] 3H-thymidine and harvested. A positive response is considered to be a stimulation index >3 (stimulation index SI=average cpm of sample stimulated with antigen/average cpm of sample of cells stimulated with no antigen or control antigen). Some controls include T-cells alone, stimulators alone, a purified negative antigen, GAD purified from baculovirus, PHA, and IL-2.\nOther methods, well known in the art, for testing clones and lines include dose response to antigen; response to these antigens or negative antigen controls; determination of HLA-class II restriction by adding blocking anti-HLA class II antibody to plates; and use of peptides to load stimulators to determine peptide specificity, which can be done as described above except the peptides are tested by dose titration and left in the assay. A dose response in combination with peptide specificity tests can also be done.\nFour individual T cell lines derived from one HLA-DRB1*0404 patient (ThHo) were used to map the 74 synthetic GAD peptides, overlapping sets of 20 mers, that span the entire length of GAD 65 (SEQ. ID. NO. 59). Antigen presenting cells, BLS-DRB1*0404 and/or BLS-DRB1*0401 (Kovats et al., J. Exp. Med. 179:2017-22, 1994), were loaded with peptide by incubating with peptide (about […]) for at least 5 hours. Reactivity of T-cells was determined as above. One peptide, hGAD 33 ([…] SEQ. ID. NO. 40) stimulated 3 or the 4 lines with BLS-B1*0404. […]"}, "[2]": {"system": "C-terminal amidated GAD65+I-A^g7 restricted T cell hybridomas (MBD.1, MBD2.3, MBD2.7, MBD2.8, MBD2.11, MBD2.14)", "assay": "Activation of GAD65 restricted T-cell hybridomas, read as CTLL proliferation in response to IL-2", "assay_type": "cell-based, NOD mouse", "details": "hybridoma MBD.1; peptide + I-A^g7 of NOD APCs; CTLL cells", "procedure": "To determine specificity of the T-cell hybridomas, antigen-presenting cells (APCs) were prepared by grinding NOD mice spleens and lysing as in Example 11. The splenocytes were brought to 3 ml in Bruff's medium containing 10% FBS. Mitomycin C (Sigma) was added at 0.3 ml per 3 ml of cell suspension to prevent DNA synthesis. The APCs were incubated for 30 minutes in a 37° C. water bath, and then washed 3 times in Bruff's medium containing 10% FBS, each time centrifuging for 5 minutes at 1200 RPM. After the final wash, the APCs were brought to a concentration of 2×10^6 cells/ml in Bruff's medium containing 10% FBS. C-terminal amidated GAD65 peptide was titered from 333 μg/ml to 0.15 μg/ml in round bottom 96 well plates. Fifty microliters (1×10^5) APCs were added to the peptides. Hybridomas were counted and brought to a concentration of 1×10^6 cells/ml in Bruff's medium containing 10% FBS, and 100 μl (1×10^5) cells was added to each well. Hybridomas were also tested against the following: I-A^g7 MHC +a peptide other than C-terminal amidated GAD65; an MHC other than I-A^g7+C-terminal amidated GAD65; the I-A^g7 MHC alone; and C-terminal amidated GAD65 alone. The plate was incubated at 37° C., 5% CO2, overnight. […] Incorporation of ^3H-thymidine into the DNA was measured on a Wallac 1205 Betaplate Beta Counter (Turku, Finland). […]"}, "NOD recipient mice": {"system": "NOD recipient mice", "assay": "Adoptive transfer of IDDM with splenocytes from diabetic NOD mice", "assay_type": "in vivo, NOD mouse", "from_the_text": "IDDM can also be adoptively transferred by transplanting splenic cells from a diabetic-donor to a non-diabetic recipient (Baron et al., J. Clin. Invest. 93:1700-08, 1994). This method involves treating in vivo activated mature T cells. Briefly, NOD/CaJ mice are irradiated (730 rad) and randomly divided into treatment groups. Splenocytes, preferably about 1.5×10^7, from newly diabetic mice are isolated and injected intravenously into non-diabetic NOD 7-8 week old recipient mice, followed six hours later with intravenous injections of saline, peptide or MHC:peptide complex at 10, 5, or 1 μg/mouse. The injections are repeated on days 4, 8 and 12 following the original injection. Mice are tested for the onset of diabetes by urine analysis, and at the time of sacrifice, blood glucose. Treatment of these mice with an MHC:peptide complex is expected to lengthen the time period before the onset of diabetes and/or to prevent or ameliorate the disease. […]\nIDDM can be adoptively transferred by injecting splenic cells from a diabetic donor into a non-diabetic recipient. […] Those animals showing positive urine values of at least 250 mg/dl glucose were further analyzed for blood glucose levels using tail clippings, and if the blood glucose was also at or above 250 mg/dl, the mice were classified as overtly diabetic. […]"}}, "data": [{"substance": "MSA: Mouse serum albumin (MSA), a known allele-specific peptide (SEQ. ID. NO. 61), positive control", "values": [{"measurement": "affinity for I-A^g7 (control peptides)", "setting": "NOD MHC Class II I-A^g7", "result": "high affinity"}]}, {"substance": "PGGAISNMYA [ID; NO; 41]", "values": [{"measurement": "stimulation of T-cell line, HLA restriction", "setting": "[1]; APC BLS-B1*0404 versus BLS-DRB1*0401", "result": "stimulated the same T-cell line only when presented by BLS-B1*0404"}]}, {"substance": "PGGAISNMYAM [ID; NO; 39]", "values": [{"measurement": "number of T cell lines stimulated", "setting": "[1]; presented by either BLS-B1*0404 or BLS-DRB1*0401", "result": "one"}]}, {"substance": "PGGAISNMYAMMIARFKMFP (PGGAISNMYAMMIARFKNFP) [hGAD 33, ID; NO; 40]", "values": [{"measurement": "number of T cell lines stimulated", "setting": "[1]; peptide presented by BLS-B1*0404", "result": 3}]}, {"substance": "SRLSKVAPVIKARMMEYGTT [same GAD65 peptide (aa 524-543) with a carboxylic group at the C-terminus]", "values": [{"measurement": "proliferative response (lesser response)", "setting": "[2]", "result": "> 2000", "unit": "CMP"}]}, {"substance": "SRLSKVAPVIKARMMEYGTT-NH2 [C-terminal amidated GAD65 peptide]", "values": [{"measurement": "proliferative response, incorporated 3H-thymidine", "setting": "[2]", "result": "> 5000", "unit": "cpm"}, {"measurement": "mice that had developed disease by day 30", "setting": "NOD recipient mice; 10 μg/mouse peptide alone", "result": "over 75%"}, {"measurement": "overall effect on onset of diabetes in the adoptive transfer model", "setting": "NOD recipient mice; mouse, in vivo", "result": "accelerated the onset of diabetes"}]}]}
